Reference: ChEMBL document CHEMBL1150542, “Enzymatic synthesis and antiviral ativity of 2-deoxy-2-fluoro-ribavirin” (Bioorg Med Chem Lett, 1996)
The source made the active and inactive calls.

Tests used:
[1] = system: Human alphaherpesvirus 2; assay: Compound was tested for antiviral activity against HSV-2; Not active; assay type: functional, organism-based
[2] = system: Human immunodeficiency virus 1; assay: Compound was tested for antiviral activity against HIV-1; Not active; assay type: functional
[3] = system: Human betaherpesvirus 5; assay: Compound was tested for antiviral activity against HCMV; Not active; assay type: functional, organism-based
[4] = system: MDCK; assay: Compound was tested for antiviral activity against influenza A in MDCK cells at concentration of 100 uM; Not active; assay type: functional, cell-based; conditions: Canis lupus familiaris
[5] = system: MDCK; assay: Compound was tested for antiviral activity against influenza B in MDCK cells at concentration of 100 uM; Not active; assay type: functional, cell-based; conditions: Canis lupus familiaris
[6] = system: Human alphaherpesvirus 3; assay: Compound was tested for antiviral activity against VZV; Not active; assay type: functional, organism-based

Measured: Activity

NC(=O)c1ncn(C2O[C@H](CO)C(O)[C@H]2F)n1 (single isomer, unassigned)
inactive: all assays above

NC(=O)c1ncn([C@@H]2O[C@H](CO)C(O)[C@H]2F)n1 (single isomer, unassigned)
inactive: all assays above
